Measurements: paper PMC8876625 (Pharmaceuticals, 2022)
Where a name gives a salt, the structure may show the parent alone.

How the values were obtained:
[1] = Fluidic permeation study (QuasiVivo QV600) with 16HBE cell barrier; format: in vitro ADME; conditions: human; fluidic cell experiment, 200 µL/min; static P12 multiplied by factor F; read-out: P16, apparent permeability between the apical and basolateral chambers in the fluidic system (converted)
Procedure: Fluidic permeation studies were performed in the MCmB QuasiVivo® […]), which was assembled according to the manufacturer's instructions. An apical and basolateral flow with a flow rate of 200 μL/min was used (Figure 7b). […] The apical circuit consisted of the apical reservoir bottle, the apical part of the pulmonary chamber, the pump, a three-way cock (B.Braun 4095111; dosing/sampling port; in order of medium flow), and connecting tubes. The basolateral circuit comprised the basolateral reservoir bottle, the basolateral part of the pulmonary chamber, a second chamber allowing the integration of additional cell tissues, the pump, the basolateral sampling port (in order of medium flow), and connecting tubes (Figure 8). Different tubing ([…]-2 Tubing set; […] VWR 228-1066, Radnor, PA, USA) was used to establish the optimal connection between the reservoir bottles, cell chambers, pump, and sampling ports. For the in vitro cell permeation studies, 4.3 × 10^4 16HBE cells were seeded in a cell culture insert with a pore size of 0.4 μm and a growth area of 0.6 cm^2 (PIHP 012 50, Merck Millipore) and cultivated at 37 °C for five days. […] After the static and fluidic permeation studies, the model substances in the apical and basolateral CCM were quantified via HPLC measurements as described in Elberskirch et al.. […]

[2] = Static permeation study with 16HBE cell monolayer on porous membrane; format: in vitro ADME, human; conditions: human; static, with 16HBE lung cell barrier, 100 µM apical, 72 h, model parameter estimate; read-out: P12, apparent permeability from the apical to the basolateral compartment and vice versa (converted)
Procedure: (§1) The bronchial cell line 16HBE was cultivated in Dulbecco's modified Eagle medium (DMEM/F12 with L-glutamine and HEPES; Gibco 11039-021, Thermo Fisher Scientific, Waltham, MA, USA), supplemented with 10% fetal bovine serum (FBS, […][…], Sigma Aldrich, St. Louis, MO, USA), 100 U/mL penicillin, and 100 μg/mL streptomycin (Gibco 15140-122, Thermo Fisher Scientific). The cells were cultivated in a humidified atmosphere at 37 °C and 5% CO2. The bronchial cell line 16HBE was obtained from Dr. […] (Cardiovascular Research Institute, University of California). […] The cells were cultivated in a 24-well plate (662160, Greiner bio-one, Frickenhausen, Germany) at 37 °C for five days under a physiological pH in the range of 7.0-7.4 with one CCM exchange after two days. […] The basolateral compartment was filled with fresh CCM. After model substance exposure, total apical, and basolateral CCM were collected each in a 1.5 mL tube ([…] Biotech GmbH & Co. […] For each time point, a separate cell culture insert was used. Samples were then stored at 4 °C until further analysis via HPLC. After the static and fluidic permeation studies, the model substances in the apical and basolateral CCM were quantified via HPLC measurements as described in […] et al.. […] The mobile phase consisted of three running agents: water (solvent A; sterile filtered 0.2 μm pore), acetonitrile (Solvent B; J.T. Baker), and 0.1% trifluoroacetic acid (TFA) in water (Solvent C; Fisher Scientific). The flow rate was set to 0.4 mL/min with 5 μL of the sample injected. […] For detection, a diode array detector (DAD) was used at a wavelength of 275 nm. To model the static in vitro permeation experiments (control and cell experiments), a bidirectional single-barrier model was implemented as a two-compartment ODE system. […] Thereby, […],i reflects the compound permeability through all present permeation barriers in the respective experimental setup, such as unstirred water layers, the porous filter membrane, and cell monolayer (apparent permeability). […] During parameter estimation in the static permeation study, permeability parameters ([…],i) were estimated by fitting the model-simulated concentrations to the observed experimental data via first-order conditional estimation method with interaction (FOCE-I) in […]®, using a combined proportional and additive residual error model (Equation (6)).

16HBE cells = assay: as above; format: in vitro ADME, human; conditions: for potential metabolism in the pulmonary epithelial cells: static cellular experiments, from mass balance; for active transport in 16HBE cells: static cellular study, equilibrium with similar apical and basolateral concentrations
Procedure: as §1

[3] = Static permeation study without lung cells (control, porous membrane only); format: in vitro ADME; conditions: not told, control without lung cell barrier (porous membrane 0.4 µm, 0.6 cm^2), 100 µM apical, model parameter estimate, read-out: P12, apparent permeability from the apical to the basolateral compartment and vice versa (converted)
Procedure: The cells were cultivated in a 24-well plate (662160, Greiner bio-one, Frickenhausen, Germany) at 37 °C for five days under a physiological pH in the range of 7.0-7.4 with one CCM exchange after two days. […] The basolateral compartment was filled with fresh CCM. After model substance exposure, total apical, and basolateral CCM were collected each in a 1.5 mL tube (Kisker Biotech GmbH & Co. […] For each time point, a separate cell culture insert was used. Samples were then stored at 4 °C until further analysis via HPLC. […] After the static and fluidic permeation studies, the model substances in the apical and basolateral CCM were quantified via HPLC measurements as described in Elberskirch et al.. […] Separation was performed using a Poroshell 120 EC-C18 column (2.1 × 100 mm, 2.7 μm; 695775-902, Agilent Technologies) connected to a guard column (Poroshell 120 EC-C18, 2.1 × 5 mm, 2.7 μm, Agilent Technologies). The mobile phase consisted of three running agents: water (solvent A; sterile filtered 0.2 μm pore), acetonitrile (Solvent B; J.T. Baker), and 0.1% trifluoroacetic acid (TFA) in water (Solvent C; Fisher Scientific). The flow rate was set to 0.4 mL/min with 5 μL of the sample injected. […] For detection, a diode array detector (DAD) was used at a wavelength of 275 nm. […]

[4] = system: human bronchial epithelial cell line Calu-3; design: method as in earlier work; conditions: Calu-3 cells; ref 5 (Mathias et al.); cited from earlier work
[5] = cited from earlier work

Row | Structure (SMILES) | Papp at 72 h, 100 µM [1] | Papp A→B at 72 h, 100 µM [2] | potential metabolism in the pulmonary epithelial cells (16HBE cells) | active transport in 16HBE cells (16HBE cells) | Papp A→B at 72 h, 100 µM [3] | apparent permeability (published value) [4] | logP [5]
1 | Cn1c(=O)c2c(ncn2C)n(C)c1=O [caffeine] | 14.9 ×10⁻⁶ cm/s | 43.7 ×10⁻⁶ cm/s | negligible | neither caffeine nor diclofenac were subject to active transport | 54.5 ×10⁻⁶ cm/s | 21.8 ×10⁻⁶ cm/s | 
2 | O=C(O)Cc1ccccc1Nc1c(Cl)cccc1Cl [diclofenac, diclofenac sodium salt] | 3.92 ×10⁻⁶ cm/s | 23 ×10⁻⁶ cm/s | negligible | neither caffeine nor diclofenac were subject to active transport | 41.8 ×10⁻⁶ cm/s |  | ~ 4
